Reference: patent US20060154936A1, “Use of n-'5-'4-(4-methylpiperaziomethyl)-benzoylamido!-2-methylphenyl!-4-(3-pyridyl)2-pyridine-amine for the treatment of pulmonary hypertension” (priority 2002, published 2006)

System: hypoxia-induced pulmonary hypertension
Experiment: Hypoxia-induced pulmonary hypertension in rats (hypobaric-hypoxic vs ambient air, 3 weeks)
Type: in vivo, Spraque-Dawley rats
Conditions: for % wall thickness (medial hypertrophy index, pulmonary artery) / RV/LV + S(%) (right ventricle/left ventricular + septum weight ratio) / mPAP (mean pulmonary arterial pressure): 50 mg/kg intraperitoneal once daily for 3 weeks; for mPAP (mean pulmonary arterial pressure): right cardiac catheterization
Excerpt: This study is designed to investigate the effects of PDGF receptor signal transduction blockade on the development of hypoxia-induced pulmonary hypertension using a PDGF receptor-selective tyrosine kinase inhibitor, e.g. COMPOUND I, COMPOUND I mesylate.
The methodology as described by Ortiz L A, Champion H C, Lasky J A and col.
Pulmonary arterial pressure (PAP) can be measured in anesthetized mice with the use of a single-lumen catheter (Nu-Med, Hopkinton, N.Y.). The catheter (145 mm in length, 0.25 mm OD) has a specially curved tip to facilitate passage through the right heart, main pulmonary artery, and the left or right pulmonary artery. Immediately after placement of the pulmonary catheter (30 min in average), pressure in the main pulmonary artery is measured with a pressure transducer (Schneider/Namic, Glenns Falls, N.Y.), and mean PAP is derived electronically and recorded continuously. For the determination of pulmonary arterial wedge pressure, the catheter is advanced to the left or right pulmonary artery and wedged with continuous measurement of the pressure waveform.
Lung morphology and evaluation of right ventricular hypertrophy can be performed as below. The heart is perfused with 0.9% NaCl to remove residual blood, and the right lung is fixed in situ for 2 h by intratracheal instillation of 10% neutral formalin (Sigma, St. Louis, Mo.) at a constant pressure of 30 cmH2O and was preserved in fixative for 24 h. Lung tissues are then sectioned sagittally and embedded in paraffin. Sections (4 μm thick) are generated and mounted on positively charged slides (Fisher Scientific, Pittsburgh, Pa.). Slides are stained with hematoxylin-eosin for light microscopic examination. Immediately after death, hearts are resected to evaluate right ventricular hypertrophy. The atria are removed up to the plane of the atrial-ventricular valves. The right ventricle (RV) free wall is then dissected free of the left ventricle (LV) and septum. The RV and LV plus septum are weighed and the RV-to-LV+septum ratio is calculated.
Ten Spraque-Dawley rats are exposed to hypobaric-hypoxic (HH) conditions and ten ambient air (AA) animals are used as controls. The rats in both conditions are randomized to receive intraperitoneal injections with either once daily COMPOUND I (50 mg/kg) or placebo for 3 weeks. Right cardiac catheterizations are used to evaluate the mean pulmonary arterial pressure (mPAP). Subsequently, the rats are sacrificed for the evaluation of their medial hypertrophy index (% wall thickness of the pulmonary artery), and right ventricular hypertrophy (right ventricle/left ventricular +septum weight ratio; RV/LV+S).

Which “% wall thickness (medial hypertrophy index, pulmonary artery)” value (ambient air (AA) rats) does the source give for Cc1ccc(NC(=O)c2ccc(CN3CCN(C)CC3)cc2)cc1Nc1nccc(-c2cccnc2)n1 [COMPOUND I] here?
The value was 10.32 ± 0.33%.

What about the “RV/LV + S(%) (right ventricle/left ventricular + septum weight ratio)” value (ambient air (AA) rats) of the same compound?
Its value is 24.60 ± 1.08%.

And the “mPAP (mean pulmonary arterial pressure)” value (ambient air (AA) rats)?
Its value is 16.20 ± 1.93 mmHg.

And the “% wall thickness (medial hypertrophy index, pulmonary artery)” value (hypobaric-hypoxic (HH) rats)?
Its value is 14.77 ± 0.73%.

And the “RV/LV + S(%) (right ventricle/left ventricular + septum weight ratio)” value (hypobaric-hypoxic (HH) rats)?
Its value is 35.85 ± 1.29%.

And the “mPAP (mean pulmonary arterial pressure)” value (hypobaric-hypoxic (HH) rats)?
Its value is 19.50 ± 1.32 mmHg.

What about the “lowering of the index of % wall thickness” value (rats, 50 mg/kg i.p. once daily, 3 weeks, p=0.001) of the same compound?
Its value is 59%.

And the “reduction of hypoxic-induced pulmonary hypertension” value (rats, 50 mg/kg i.p. once daily, 3 weeks, p=0.002)?
Its value is 80%.

And the “reduction of RV hypertrophy” value (rats, 50 mg/kg i.p. once daily, 3 weeks, p=0.006)?
Its value is 46%.
